Results reported in patent publication US5260335A, “Pharmaceutical preparations for the treatment of inflammatory diseases” (Plantamed Arzneimittel GmbH, priority 1991, dated 1993).

How the values were obtained:
[1] = system: bronchial obstruction after allergen inhalation; assay: Inhibition of bronchial obstruction after allergen (ovalbumin) inhalation in sensitized guinea pigs; type: in vivo; details: for activity in preventing bronchial obstruction after inhalation of an allergen (in words): methyl gallate, gallic acid and quercetin compared
Method: Male white guinea pigs were sensitized by means of intraperitoneal and intramuscular injection of ovalbumin according to the well-known methods. […] All the experiments were conducted according to a randomized evaluation record: Groups of 10 to 14 animals were divided into two sub-groups and either treated with the material to be studied or with control solutions. […] Ovalbumin, PAF, histamine and acetylcholine were administered as an aerosol atomized by ultrasound. Spontaneously breathing animals were placed in a dual-chamber body plethysmograph in which the two chambers were separated around the head of the animals by a rubber collar filled with water. Changes in volume in the two chambers were measured by means of pressure transfer systems. The degree of bronchial obstruction was determined by means of the parameter, "compressed air".

[2] = system: PAF-induced bronchial obstruction; assay: Inhibition of PAF-induced bronchial reaction (successive inhalation of histamine, PAF and histamine); type: in vivo, guinea pigs
Method: All the experiments were conducted according to a randomized evaluation record:
Groups of 10 to 14 animals were divided into two sub-groups and either treated with the material to be studied or with control solutions.
1 hour, 12 hours, 4 or 7 days after the pretreatment, the animals were exposed to various inhalation stimuli. […] Ovalbumin, PAF, histamine and acetylcholine were administered as an aerosol atomized by ultrasound.
Spontaneously breathing animals were placed in a dual-chamber body plethysmograph in which the two chambers were separated around the head of the animals by a rubber collar filled with water. Changes in volume in the two chambers were measured by means of pressure transfer systems. The degree of bronchial obstruction was determined by means of the parameter, "compressed air".
The action of the plant extracts or of the compounds on the PAF-induced reaction was studied by means of the successive inhalation of histamine, PAF and histamine:
One group of animals was divided into two sub-groups and both sub-groups inhaled histamine in a concentration causing a moderate bronchial obstruction. One hour later, one group was given the substances to be studied, the other group was given the solvent alone. Both groups were subjected 12 hours later to a stimulus by means of the successive inhalation of PAF and histamine with 1 μg PAF at first and, 60 minutes later, the same dose of histamine being given as before.

SMILES | % inhibition of bronchial obstruction after allergen inhalation, 1st stimulus ([1]; 5 mg/kg) [%] | % inhibition of bronchial obstruction after allergen inhalation, 2nd stimulus ([1]; 5 mg/kg) [%] | inhibition of bronchial reactions to an allergen stimulus ([1]; oral dose of 5 mg/kg) [%] | % inhibition of bronchial obstruction after PAF inhalation ([2]; 5 mg/kg) [%] | inhibition of PAF-induced bronchial reaction ([2]; oral dose of 5 mg/kg) | % inhibition of bronchial obstruction after allergen inhalation, 1st stimulus ([1]; 45 mg/kg) [%] | % inhibition of bronchial obstruction after allergen inhalation, 2nd stimulus ([1]; 45 mg/kg) [%] | activity in preventing bronchial obstruction after inhalation of an allergen (in words) [1] | % inhibition of bronchial obstruction after PAF inhalation ([2]; 45 mg/kg) [%] | activity in PAF-induced bronchial obstruction (in words) ([2]; compared with the mixture of quercetin, gallic acid and protocatechinic acid)
O=C(OC1CC(OC(=O)c2cc(O)c(O)c(O)c2)(C(=O)O)CC(OC(=O)c2cc(O)c(O)c(O)c2)C1OC(=O)c1cc(O)c(O)c(O)c1)c1cc(O)c(O)c(O)c1 (single isomer, unassigned) [tetragalloylquinic acid] | 86 ± 24 | 57 ± 79 | 86±24 | 60 ± 43 | about 60% |  |  |  |  | 
O=C(O)c1cc(O)c(O)c(O)c1 [Gallic acid, gallic acid] |  |  |  |  |  | 37 ± 35 | 40 ± 31 | about the same activity |  | 
COC(=O)c1cc(O)c(O)c(O)c1 [Methyl gallate, methyl gallate] |  |  |  |  |  | 43 ± 34 | 41 ± 24 | about the same activity | 65 ± 24 | somewhat more activity than the mixture
O=c1c(O)c(-c2ccc(O)c(O)c2)oc2cc(O)cc(O)c12 [Quercetin, quercetin, reference compound] |  |  |  |  |  | 53 ± 23 | 34 ± 33 | about the same activity |  | 
